Reference: patent US20130142883A1, “MEDICAL FOOD FOR THE DIETARY MANAGEMENT OF DEPRESSION AND ANXIETY AND METHODS THEREOF” (priority 2011, published 2013)

Assays:
[1] = test system: C57BI/6J mice; assay: Sucrose preference test (anhedonia) under chronic stress; type: in vivo; conditions: young adult male mice; water one week before and during ten days of chronic stress; 10th day; Citalopram 15 mg/kg per day per os; mean±SEM
Experimental: Citalopram 15 mg/kg per day per os was used as the reference antidepressant drug. There was no difference between groups at baseline. At 10th day of the stress procedure, animals were tested on the sucrose preference, common test for assessment of anhedonia. Results are presented in Table 6 as mean±SEM percent of sucrose preference.

[2] = test system: C57BI/6 mice; assay: Dark-light box test after 14 days of drinking water; type: in vivo; conditions: three-months-old male mice; water ad libitum 14 days; Diazepam 2.5 mg/kg bolus 30 min prior the test; mean±SEM
Experimental: Bolus injection of anxiolytic drug Diazepam (2.5 mg/kg, 30 min prior the test) was used as a positive reference control.

SMILES	Sucrose preference [1]	Time (time spent in the lit box) [2]
CN(C)CCCC1(c2ccc(F)cc2)OCc2cc(C#N)ccc21 (centres unmarked) [Citalopram]	70.0 ± 3.0 %	
CN1C(=O)CN=C(c2ccccc2)c2cc(Cl)ccc21 [Diazepam]		155.2 ± 7.8 s
